Measured values from patent publication US9695200B2, “Heterocyclic ITK inhibitors for treating inflammation and cancer” (Confluence Life Sciences, Inc., priority 2015, dated 2017).

System: phospho-PLCγ1 in Jurkat cells
Assay: ITK target modulation PLC-γ assay (phospho-PLCγ1, αCD3-stimulated Jurkat cells)
Format: cell-based, human
Details: Homo sapiens, 1 hour compound incubation, αCD3 Dynabeads stimulation 8 minutes, MSD phospho-PLCγ1, read-out: PLC-γ Inhibition IC50
Description: Jurkat cells, an immortalized human T-lymphocyte cell line, were maintained in RPMI media, 10% FBS, 1% pen/strep/glutamine (growth media). Cells were plated in growth media plus 50 μM β-mercaptoethanol at 400,000 cells per well of a 96 well plate.
Compounds were serially diluted into DMSO, and then into media to concentrations 10× that of the final assay concentration. Compounds were then added to the cells with the final assay DMSO concentration being 0.1%. Cells were incubated for 1 hour at 37° C.
Following compound incubation, αCD3 Dynabeads were added at 1 bead/cell to each assay well and incubated at 37° C. for 7 minutes. Unstimulated control wells received media only. The plate was then placed on a 96-well magnetic plate for an additional 60 seconds (total assay stimulation time equals 8 minutes). The plate was then dumped and gently patted dry on a paper towel. 50 μl of complete Meso Scale Discovery (MSD) Lysis buffer was then added to each well. Samples were assayed for phospho-PLCγ1 using Meso Scale Discovery technology.
The assay stimulation time has been optimized for detection of Itk kinase-mediated phosphorylation of PLCγ1. The timing and detection reagents for this assay could be adjusted to capture phosphorylation events upstream (e.g., phospho-ZAP70) or downstream of the Itk/PLCγ1 node, provided the appropriate phospho-specific antibodies are available for building of an MSD assay.

SMILES | IC50 [µM]
C=CC(=O)NC1CN(c2cnc3[nH]cc(-c4ccnc(C#N)c4)c3c2)C1 [Example 5, N-(1-(3-(2-Cyanopyridin-4-yl)-1H-pyrrolo[2,3-b]pyridin-5-yl)azetidin-3-yl)acrylamide] | > 5
C=CC(=O)Nc1cccc(-c2cnc3[nH]cc(-c4cccnc4)c3c2)c1 [Example 12, N-(3-(3-(pyridin-3-yl)-1H-pyrrolo[2,3-b]pyridin-5-yl)phenyl)acryl-amide] | 1 to 5
C=CC(=O)Nc1cc(C#N)cc(-c2cnc3[nH]cc(-c4ccncc4)c3c2)c1 [Example 19, N-(3-cyano-5-(3-(pyridin-4-yl)-1H-pyrrolo[2,3-b]pyridin-5-yl)phenyl)acryl-amide] | > 5
C=CC(=O)Nc1cc(-c2cnc3[nH]cc(-c4ccncc4)c3c2)cc(C(F)(F)F)c1 [Example 20, N-(3-(3-(pyridin-4-yl)-1H-pyrrolo[2,3-b]pyridin-5-yl)-5-(trifluoromethyl)phenyl)acryl-amide] | < 1
C=CC(=O)Nc1cc(OC)cc(-c2cnc3[nH]cc(-c4ccncc4)c3c2)c1 [Example 22, N-(3-methoxy-5-(3-(pyridin-4-yl)-1H-pyrrolo[2,3-b]pyridin-5-yl)phenyl)acryl-amide] | < 1
C=CC(=O)Nc1cccc(-c2cnc3[nH]cc(-c4ccnc(F)c4)c3c2)c1 [Example 25, N-(3-(3-(2-fluoropyridin-4-yl)-1H-pyrrolo[2,3-b]pyridin-5-yl)phenyl)acryl-amide] | < 1
C=CC(=O)Nc1cccc(-c2cnc3[nH]cc(-c4ccnc(C)c4)c3c2)c1 [Example 26, N-(3-(3-(2-methylpyridin-4-yl)-1H-pyrrolo[2,3-b]pyridin-5-yl)phenyl)acryl-amide] | < 1
C=CC(=O)Nc1cccc(-c2cnc3[nH]cc(-c4cc(C)nc(OC)c4)c3c2)c1 [Example 29, N-(3-(3-(2-methoxy-6-methylpyridin-4-yl)-1H-pyrrolo[2,3-b]pyridin-5-yl)phenyl)acryl-amide] | 1 to 5
C=CC(=O)Nc1cccc(-c2cnc3[nH]cc(-c4ccc(OC)nc4)c3c2)c1 [Example 30, N-(3-(3-(6-methoxypyridin-3-yl)-1H-pyrrolo[2,3-b]pyridin-5-yl)phenyl)acryl-amide] | 1 to 5
C=CC(=O)Nc1cccc(-c2cnc3[nH]cc(-c4cc(OC)nc(C(F)(F)F)c4)c3c2)c1 [Example 31, N-(3-(3-(2-methoxy-6-(trifluoromethyl)pyridin-4-yl)-1H-pyrrolo[2,3-b]pyridin-5-yl)phenyl)acryl-amide] | > 5
C=CC(=O)Nc1cccc(-c2cnc3[nH]cc(-c4ccnc(NC)c4)c3c2)c1 [Example 32, N-(3-(3-(2-(methylamino)pyridin-4-yl)-1H-pyrrolo[2,3-b]pyridin-5-yl)phenyl)acryl-amide] | < 1
Cc1cc(-c2c[nH]c3ncc(-c4cccc(/C=C(\C#N)C(N)=O)c4)cc23)ccn1 [Example 33, (E)-2-cyano-3-(3-(3-(2-methylpyridin-4-yl)-1H-pyrrolo[2,3-b]pyridin-5-yl)phenyl)acryl-amide] | 1 to 5
C=CC(=O)Nc1cccc(-c2cnc3[nH]cc(-c4ccccc4C)c3c2)c1 [Example 42, N-(3-(3-(o-tolyl)-1H-pyrrolo[2,3-b]pyridin-5-yl)phenyl)acryl-amide] | 1 to 5
C=CC(=O)Nc1cccc(-c2cnc3[nH]cc(-c4cncc(Cl)c4)c3c2)c1 [Example 43, N-(3-(3-(5-chloropyridin-3-yl)-1H-pyrrolo[2,3-b]pyridin-5-yl)phenyl)acryl-amide] | 1 to 5
C=CC(=O)Nc1cccc(-c2cnc3[nH]cc(-c4cc(C)ncn4)c3c2)c1 [Example 44, N-(3-(3-(6-methylpyrimidin-4-yl)-1H-pyrrolo[2,3-b]pyridin-5-yl)phenyl)acryl-amide] | 1 to 5
C=CC(=O)Nc1cccc(-c2cnc3[nH]cc(-c4ccc(F)nc4)c3c2)c1 [Example 46, N-(3-(3-(6-fluoropyridin-3-yl)-1H-pyrrolo[2,3-b]pyridin-5-yl)phenyl)acryl-amide] | < 1
C=CC(=O)Nc1cccc(-c2cnc3[nH]cc(-c4ccc(NC)nc4)c3c2)c1 [Example 48, N-(3-(3-(6-(methylamino)pyridin-3-yl)-1H-pyrrolo[2,3-b]pyridin-5-yl)phenyl)acryl-amide] | 1 to 5
C=CC(=O)Nc1cccc(-c2cnc3[nH]cc(-c4ccncn4)c3c2)c1 [Example 49, N-(3-(3-(pyrimidin-4-yl)-1H-pyrrolo[2,3-b]pyridin-5-yl)phenyl)acryl-amide] | < 1

SMILES | IC50 [µM]
C=CC(=O)Nc1cccc(-c2cnc3[nH]cc(-c4ccc(=O)n(CC5CC5)c4)c3c2)c1 [Example 50, N-(3-(3-(1-(cyclopropyl-methyl)-6-oxo-1,6-dihydropyridin-3-yl)-1H-pyrrolo[2,3-b]pyridin-5-yl)phenyl)acryl-amide] | < 1
C=CC(=O)Nc1cccc(-c2cnc3[nH]cc(-c4cccc(OC)c4)c3c2)c1 [Example 51, N-(3-(3-(3-methoxyphenyl)-1H-pyrrolo[2,3-b]pyridin-5-yl)phenyl)acryl-amide] | 1 to 5
C=CC(=O)Nc1cccc(-c2cnc3[nH]cc(-c4cc(C)cc(OC)n4)c3c2)c1 [Example 52, N-(3-(3-(6-methoxy-4-methylpyridin-2-yl)-1H-pyrrolo[2,3-b]pyridin-5-yl)phenyl)acryl-amide] | > 5
C=CC(=O)Nc1cccc(-c2cnc3[nH]cc(-c4cccc5ccccc45)c3c2)c1 [Example 53, N-(3-(3-(naphthalen-1-yl)-1H-pyrrolo[2,3-b]pyridin-5-yl)phenyl)acryl-amide] | > 5
C=CC(=O)Nc1cccc(-c2cnc3[nH]cc(-c4cccc5ncccc45)c3c2)c1 [Example 54, N-(3-(3-(quinolin-5-yl)-1H-pyrrolo[2,3-b]pyridin-5-yl)phenyl)acryl-amide] | 1 to 5
C=CC(=O)Nc1cccc(-c2cnc3[nH]cc(-c4cccc5cnccc45)c3c2)c1 [Example 55, N-(3-(3-(isoquinolin-5-yl)-1H-pyrrolo[2,3-b]pyridin-5-yl)phenyl)acryl-amide] | > 5
C=CC(=O)Nc1cccc(-c2cnc3[nH]cc(-c4cc(NC)ncn4)c3c2)c1 [Example 56, N-(3-(3-(6-(methylamino)pyrimidin-4-yl)-1H-pyrrolo[2,3-b]pyridin-5-yl)phenyl)acryl-amide] | 1 to 5
C=CC(=O)Nc1cc(-c2cnc3[nH]cc(-c4ccc(F)nc4)c3c2)cc(C(F)(F)F)c1 [Example 57, N-(3-(3-(6-fluoropyridin-3-yl)-1H-pyrrolo[2,3-b]pyridin-5-yl)-5-(trifluoromethyl)phenyl)acryl-amide] | < 1
C=CC(=O)Nc1cc(-c2cnc3[nH]cc(-c4ccc(OC)nc4)c3c2)cc(C(F)(F)F)c1 [Example 58, N-(3-(3-(6-methoxypyridin-3-yl)-1H-pyrrolo[2,3-b]pyridin-5-yl)-5-(trifluoromethyl)phenyl)acryl-amide] | 1 to 5
C=CC(=O)Nc1cc(-c2cnc3[nH]cc(-c4cccnc4)c3c2)cc(C(F)(F)F)c1 [Example 59, N-(3-(3-(pyridin-3-yl)-1H-pyrrolo[2,3-b]pyridin-5-yl)-5-(trifluoromethyl)phenyl)acryl-amide] | < 1
COc1cc(/C=C(\C#N)C(N)=O)cc(-c2cnc3[nH]cc(-c4ccnc(OC)c4)c3c2)c1 [Example 60, (E)-2-cyano-3-(3-methoxy-5-(3-(2-methoxypyridin-4-yl)-1H-pyrrolo[2,3-b]pyridin-5-yl)phenyl)acryl-amide] | > 5
C=CC(=O)Nc1cc(-c2cnc3[nH]cc(-c4ccnc(F)c4)c3c2)cc(C(F)(F)F)c1 [Example 61, N-(3-(3-(2-fluoropyridin-4-yl)-1H-pyrrolo[2,3-b]pyridin-5-yl)-5-(trifluoromethyl)phenyl)acryl-amide] | < 1
C=CC(=O)Nc1cccc(-c2cnc3[nH]cc(-c4ccnc5[nH]ccc45)c3c2)c1 [Example 62, N-(3-(1H,1′H-[3,4′-bipyrrolo[2,3-b]pyridin]-5-yl)phenyl)acryl-amide] | < 1
N#C/C(=C\c1cccc(-c2cnc3[nH]cc(-c4ccc(F)nc4)c3c2)c1)C(N)=O [Example 63, (E)-2-cyano-3-(3-(3-(6-fluoropyridin-3-yl)-1H-pyrrolo[2,3-b]pyridin-5-yl)phenyl)acryl-amide] | > 5
C=CC(=O)Nc1cccc(-c2cnc3[nH]cc(-c4ccnc5ccccc45)c3c2)c1 [Example 64, N-(3-(3-(quinolin-4-yl)-1H-pyrrolo[2,3-b]pyridin-5-yl)phenyl)acryl-amide] | 1 to 5
COC/C=C/C(=O)Nc1cccc(-c2cnc3[nH]cc(-c4ccnc(OC)c4)c3c2)c1 [Example 65, (E)-4-methoxy-N-(3-(3-(2-methoxypyridin-4-yl)-1H-pyrrolo[2,3-b]pyridin-5-yl)phenyl)but-2-enamide] | > 5
C=CC(=O)Nc1cccc(-c2cnc3[nH]cc(-c4ccc(=O)n(CC(C)(C)O)c4)c3c2)c1 [Example 66, N-(3-(3-(1-(2-hydroxy-2-methylpropyl)-6-oxo-1,6-dihydropyridin-3-yl)-1H-pyrrolo[2,3-b]pyridin-5-yl)phenyl)acryl-amide] | 1 to 5
C=C(C)C(=O)Nc1cc(-c2cnc3[nH]cc(-c4ccnc(OC)c4)c3c2)cc(-c2cnn(C)c2)n1 [Example 70, N-(4-(3-(2-methoxypyridin-4-yl)-1H-pyrrolo[2,3-b]pyridin-5-yl)-6-(1-methyl-1H-pyrazol-4-yl)pyridin-2-yl)methacryl-amide] | > 5
